Values of other authors, collected in patent US20080038403A1, “WEIGHT MANAGEMENT SYSTEM FOR OBESE ANIMALS” (MARS INCORPORATED, priority 2002, published 2008).

Columns and labels:
[1] = dietary consumption
[2] = dietary consumption; remark: listed apart in the source

## 1,3-diacylglycerol
[1]
  serum cholesterol levels: lowers
  serum triglyceride levels: lowers
[2]
  body weight: decreases
  regional fat deposition: decreases
